Measured values from US7220775B2, “Compound useful for the treatment of neuropathic pain” (H. Lundbeck A/S, priority 2002, dated 2007).
Where two headings read alike, the source gives them in different places.

How the values were obtained:
human GAL1 receptor = biological target: T1, human GAL1 receptor (Homo sapiens, UniProt P47211); test: Radioligand binding at cloned human GAL1 receptor; details: read-out: Ki (nM) GalR1
T1 construct: expressed in transfected cells
T1 sequence (P47211 1-349): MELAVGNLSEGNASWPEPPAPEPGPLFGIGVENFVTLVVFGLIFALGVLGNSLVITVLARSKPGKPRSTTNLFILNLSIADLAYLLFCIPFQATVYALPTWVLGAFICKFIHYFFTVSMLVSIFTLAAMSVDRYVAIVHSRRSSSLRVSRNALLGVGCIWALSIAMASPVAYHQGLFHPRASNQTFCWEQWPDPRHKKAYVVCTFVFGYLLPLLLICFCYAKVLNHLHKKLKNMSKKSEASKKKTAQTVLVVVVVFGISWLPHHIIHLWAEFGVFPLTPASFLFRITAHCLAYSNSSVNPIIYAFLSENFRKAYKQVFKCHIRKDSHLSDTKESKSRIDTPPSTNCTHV
Experimental: (§1) The present invention provides for a method of determining the binding affinity of a GAL3 antagonist, wherein the GAL3 antagonist is dissolved in a “suitable solvent”. A “suitable solvent” means one which permits the measurement of binding affinity of the GAL3 antagonist to the human GAL3 receptor at concentrations less than 1 μM, preferably less than 100 nM. Examples of solvents include, but are not limited to, DMSO, ethanol, N,N-dimethylacetamide, or water. For indolones, the preferred solvent is 3% DMSO (final concentration in the assay). For pyrimidines, the preferred solvent is 1% ethanol/0.09% polypuronic acid F-127 (final concentration in the assay). For any other type of compounds, the preferred solvent is the solvent which permits the measurement of binding affinity of a GAL3 antagonist at the lowest concentration. Once a suitable solvent is ascertained for the binding assay of the human GAL3 receptor, the same solvent is used in assays to determine the binding affinity for instance, at the GAL1 receptor.
(§2) LM(tk−) cells were stably transfected with the human GAL1 or GAL3 receptor. CHO cells were stably transfected with the human GAL2 receptor.
(§3) cDNAs for the human and rat GAL1, and human and rat GAL3 receptors were transfected with a G-418 resistant gene into the mouse fibroblast LM(tk−) cell line by a calcium phosphate transfection method (Cullen, 1987). Stably transfected cells were selected with G-418. Human and rat GAL2 receptors were similarly transfected into CHO cells.
Membranes were harvested from stably transfected LM(tk−) cells. Adherent cells were washed twice in ice-cold phosphate buffered saline (138 mM NaCl, 8.1 mM Na2HPO4, […] KCl, 1.2 mM KH2PO4, 0.9 mM CaCl2, 0.5 mM MgCl2, pH 7.4) and lysed by sonication in ice-cold sonication buffer (20 mM Tris-HCl, 5 mM EDTA, pH 7.7). Large particles and debris were cleared by low speed centrifugation (200×g, 5 min, 4° C.). Membranes were collected from the supernatant fraction by centrifugation (32,000×g, 18 min, 4° C.), washed with ice-cold hypotonic buffer, and collected again by centrifugation (32,000×g, 18 min, 4° C.). The final membrane pellet was resuspended by sonication into a small volume of ice-cold binding buffer (˜1 ml for every 5 plates: 10 mM NaCl, […] HEPES, 0.22 mM KH2PO4, 1.26 mM Cal2, 0.81 mM MgSO4, pH 7.4). Protein concentration was measured by the Bradford method (Bradford, 1976) using Pio-Rad Reagent, with bovine serum albumin as a standard. Membranes were held on ice for up to one hour and used fresh, or flash frozen and stored in liquid nitrogen. Membranes were prepared similarly from CHO cells. […]
(§4) Binding data were analyzed using nonlinear regression and statistical techniques available in the GraphPAD Prism package (San, Diego, Calif.). […]

human GAL2 receptor = biological target: T2, human GAL2 receptor (Homo sapiens, UniProt O43603); test: Radioligand binding at cloned human GAL2 receptor; details: read-out: Ki (nM) GalR2
T2 construct: expressed in transfected cells
T2 sequence (O43603 1-387): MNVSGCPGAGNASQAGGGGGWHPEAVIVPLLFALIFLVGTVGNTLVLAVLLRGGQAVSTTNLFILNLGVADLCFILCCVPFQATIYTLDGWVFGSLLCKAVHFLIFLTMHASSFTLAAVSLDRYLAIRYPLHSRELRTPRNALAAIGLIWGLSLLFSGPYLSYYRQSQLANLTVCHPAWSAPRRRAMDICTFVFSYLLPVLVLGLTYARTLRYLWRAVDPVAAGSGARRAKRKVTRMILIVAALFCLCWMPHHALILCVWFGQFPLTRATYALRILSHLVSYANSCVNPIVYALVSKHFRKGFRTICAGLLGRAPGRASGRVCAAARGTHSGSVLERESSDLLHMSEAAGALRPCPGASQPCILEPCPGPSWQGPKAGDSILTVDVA
Experimental: as §1, §2, §3
(§5) Membranes were harvested from stably transfected LM(tk−) cells. Adherent cells were washed twice in ice-cold phosphate buffered saline (138 mM NaCl, 8.1 mM Na2HPO4, […] KCl, 1.2 mM KH2PO4, 0.9 mM CaCl2, 0.5 mM MgCl2, pH 7.4) and lysed by sonication in ice-cold sonication buffer (20 mM Tris-HCl, 5 mM EDTA, pH 7.7). […] Protein concentration was measured by the Bradford method (Bradford, 1976) using Pio-Rad Reagent, with bovine serum albumin as a standard. […]
as §4

human GAL3 receptor = biological target: T3, human GAL3 receptor (Homo sapiens, UniProt O60755); test: Radioligand binding at cloned human GAL3 receptor
T3 construct: expressed in transfected cells
T3 sequence (O60755 1-368): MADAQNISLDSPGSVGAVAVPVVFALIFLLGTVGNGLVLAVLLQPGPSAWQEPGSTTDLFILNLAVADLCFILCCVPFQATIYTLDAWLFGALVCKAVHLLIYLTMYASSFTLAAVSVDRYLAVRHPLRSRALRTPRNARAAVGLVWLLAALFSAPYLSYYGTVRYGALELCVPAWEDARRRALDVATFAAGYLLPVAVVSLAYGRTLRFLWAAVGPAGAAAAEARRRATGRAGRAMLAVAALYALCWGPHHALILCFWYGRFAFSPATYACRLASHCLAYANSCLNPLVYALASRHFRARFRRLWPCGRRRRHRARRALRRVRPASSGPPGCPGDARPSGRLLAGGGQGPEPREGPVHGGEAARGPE
Experimental: as §1, §2, §3, §5, §4

[1] = test system: neuropathic rats (chronic constriction nerve injury); test: Chronic constriction nerve injury model of neuropathic pain: mechanical allodynia (Von Frey filaments); type: in vivo, rat; details: 10 mg/kg i.p.
Experimental: (§6) The aim of this study was to assess the potential analgesic effects of Example 92 following intraperitoneal administration at the doses of 3, 10 and 30 mg/kg, respectively, in an animal model of neuropathic pain. A peripheral mononeuropathy was induced in the right hind limb of rats following a chronic constriction nerve injury (Bennett and Xie, 1988), and the development of mechanical allodynia and thermal hyperalgesia was monitored using established behavioral tests (Attal, N., et al., 1990; Hargreaves, K., et al., 1988).
(§7) Male Sprague-Dawley rats within the weight range of 200-225 g, and approximate age 7-9 weeks, were allowed to acclimate for a minimum of 6 days prior to the start of the behavioral testing.
(§8) All rats underwent a chronic constriction nerve injury, and of these, those that successfully developed allodynia and hyperalgesia were allocated to treatment groups.
(§9) There were 5 separate treatment groups (with a minimum of 10 rats per group). The treatment groups were as follows: • Group C received Morphine at 10 mg/kg (n=10) • Group D received Vehicle for Example 92* at 1 ml/kg (n=10) (* 100% DMSO) • Group E received Example 92 at 30 mg/kg (n=10) • Group F received Example 92 at 3 mg/kg (n=10) • Group G received Example 92 at 10 mg/kg (n=10)
(§10) The dose volume for all treatments was 1 ml/kg. Each rat received a single i.p. dose of the test substance, reference substance or vehicle on Day 12 PO. Test substance and vehicle dosing solutions were encoded (C-G) so that the observers were unaware of the identity of the treatment groups.
(§11) The behavioral tests (Von Frey filament and Thermal Plantar Tests—see below) were performed on all rats on 3 separate days prior to […], to establish baseline values. The pre-surgery baseline values were calculated as the mean of the last 2 days testing (the data from the first day of testing were not included as this was classed as part of the acclimating period). The sequence of tests was always mechanical allodynia (Von Frey Test) followed by thermal hyperalgesia (Thermal Plantar Test), with a minimum 5 min period allowed between the 2 tests.
Each animal was placed in a wire mesh cage and a series of Von Frey filaments (ranging from filament handle number 3.61 to 6.10) applied to the plantar surface of the hind paw, from below. The filaments were applied in ascending order (starting with the weakest force) and the withdrawal threshold for both the ipsilateral and contralateral hind paws was evaluated. Each filament was indented on the plantar surface of the foot to the point where it just started to bend, and this was repeated approximately 8-10 times per filament at a frequency of approximately 1 Hz. The withdrawal threshold was defined as the lowest force of two or more consecutive Von Frey filaments to elicit a reflex withdrawal response.
The animals were surgically prepared over 5 days. Each rat was anaesthetized with sodium pentobarbitone (60 mg/ml; 0.6 ml/kg dose, intraperitonealy; batch number 00230; expiry date 22 May 3) and then supplemented as necessary with isoflurane (1-3% in oxygen). The surface around the incision site was shaved and then sterilized with surgical spirit. Under aseptic conditions the right sciatic nerve was exposed by blunt dissection at mid-thigh level and approximately 1 cm of nerve was freed of adhering connective tissue. Four chromic cat gut (4.0) ligatures, spaced at approximately 1 mm inzervals, were then tied so as to barely constrict the nerve (as viewed under 40× magnification) to induce a peripheral mononeuropathy in the right hind limb. The overlying muscle and skin were then closed in layers using suture material, and the anesthesia discontinued. On recovery from anesthesia, the rats were re-housed with their cage mates on soft padded bedding overnight (to reduce the risk of infection) and subsequently on sawdust bedding following full recovery. The animals were allowed 4 full days to recover before the behavioral testing was recommenced. […]

[2] = test system: neuropathic rats (chronic constriction nerve injury); test: Chronic constriction nerve injury model of neuropathic pain: thermal hyperalgesia (Thermal Plantar Test); type: in vivo, rat; details: 10 mg/kg i.p.
Experimental: as §6, §7, §8, §9, §10, §11
Each rat was placed in a clear plastic chamber with a glass floor and allowed a short period to acclimatize to the new environment (approximately 5 min.). The animals were then challenged with a radiant Infrared (IR) heat source, directed at the plantar surface of the hind paw from below, and the withdrawal latency of both the ipsilateral and contralateral hind paws was evaluated. The infrared intensity was set at IR50 and the maximum length of exposure to the IR source was 18 s. Non-responding animals were allocated a withdrawal latency of 18 s.
The animals were surgically prepared over 5 days. […]

## COc1ccc(N2CCN(c3nc(Nc4ccc(C)cc4)cc(N4CCCCC4)n3)CC2)c(OC)c1 [Example 28]
Human GAL1 receptor; Table 1, pyrimidines
  Ki: > 5000 nM
Human GAL2 receptor; Table 1, pyrimidines
  Ki: > 5000 nM
Human GAL3 receptor; Table 1, pyrimidines, read-out: Ki (nM) GalR3
  Ki: 270 nM

## Cc1ccccc1Nc1cc(N(C)C)nc(Nc2ccccc2)n1 [Example 51]
Human GAL1 receptor; Table 2, pyrimidines
  Ki: > 5000 nM
Human GAL2 receptor; Table 2, pyrimidines
  Ki: > 5000 nM

## CN(C)c1cc(N)nc(N(c2ccccc2)c2ccc(Cl)cc2)n1 [Example 58]
Human GAL1 receptor; Table 2, pyrimidines
  Ki: > 5000 nM
Human GAL2 receptor; Table 2, pyrimidines
  Ki: > 5000 nM
Human GAL3 receptor; Table 2, pyrimidines, read-out: Ki (nM) GalR3
  Ki: 783 nM

## C[C@H]1CC2CC([C@@H]1Nc1cc(N(C)C)nc(Nc3ccccc3)n1)C2(C)C (some centres unmarked) [Example 71]
Human GAL1 receptor; Table 2, pyrimidines
  Ki: > 5000 nM

## CN(C)c1cc(NC2C3CC4CC(C3)CC2C4)nc(N2CCN(Cc3ccccc3)CC2)n1 (centres unmarked) [Example 137]
Human GAL3 receptor; Table 3a, pyrimidines, read-out: Ki (nM) Gal3
  Ki: 124 nM

## CN1CC[C@]23c4c5ccc(O)c4O[C@H]2[C@@H](O)C=C[C@H]3[C@H]1C5 [morphine, reference compound]
[1]; 30 and 90 min
  contralateral paw effects (Von Frey): significant contralateral effects
[1]; up to 90 min PD
  effect on withdrawal threshold of the nerve-injured hind paw (Von Frey): significantly increased
[2]; approx. 40 and 100 min PD
  effect on withdrawal latency of the nerve-injured hind paw to the thermal plantar device: significantly increased
[2]; up to 100 min PD
  withdrawal latency to a noxious heat stimulus, nerve-injured and contralateral hind paws: significant increase
